From ChEMBL document CHEMBL3297705, “Discovery of 5,6,7,8-tetrahydropyrido[3,4-d]pyrimidine inhibitors of Erk2” (Bioorg Med Chem Lett, 2014) come the findings set out here.

The target of data set [1] is T1, Mitogen-activated protein kinase 1 (Homo sapiens, UniProt P28482).
Description: Inhibition of human recombinant N-terminal 6-His-tagged ERK2 expressed in Escherichia coli using S/T17 as substrate after 30 mins by spectrophotometry
In data set [2] the target is T1, Mitogen-activated protein kinase 1. This is another data set of the same source.
Description: Inhibition of ERK2 in human HepG2 cells assessed as P90RSK phosphorylation at Ser380 after 1.5 hrs by fluorescence assay
For data set [3], the target named is Cyclin-dependent kinase 2 (Homo sapiens, UniProt P24941).
Description: Inhibition of Cdk2 (unknown origin)
Data set [4] can be described thus: Plasma protein binding in human. The format is ADME, cell-free. Conditions: read-out: PPB (converted).

Molecules are shown by their SMILES.

T1 sequence (P28482 whole entry): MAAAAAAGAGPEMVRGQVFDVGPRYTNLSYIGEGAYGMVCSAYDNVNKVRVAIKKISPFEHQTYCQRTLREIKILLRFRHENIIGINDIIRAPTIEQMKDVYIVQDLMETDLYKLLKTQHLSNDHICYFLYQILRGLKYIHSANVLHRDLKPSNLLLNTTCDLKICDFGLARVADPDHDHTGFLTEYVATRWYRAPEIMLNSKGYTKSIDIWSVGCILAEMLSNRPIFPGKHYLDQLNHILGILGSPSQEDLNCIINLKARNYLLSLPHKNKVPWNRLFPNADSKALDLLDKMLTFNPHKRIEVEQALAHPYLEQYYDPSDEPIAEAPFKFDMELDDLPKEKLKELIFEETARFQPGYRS

As a reminder, the IC50 is the concentration needed to halve the response being measured. The low end stands for higher potency, the high end for lower potency. Consider `CC(C)Nc1ncc2c(n1)CN(C(=O)NCc1ccc(Cl)c(F)c1)CC2`, for which the IC50 in data set [1] came to 81 nM; in data set [2], 1630 nM.
For `CC(C)Nc1ncc2c(n1)CN(C(=O)NCc1ccc(F)c(Cl)c1)CC2`, in that order: 66 nM and 1220 nM.
The matching figures for `CC(C)Nc1ncc2c(n1)CN(C(=O)N[C@H](CO)c1ccc(F)c(Cl)c1)CC2`: 4 nM and 160 nM.
The matching figures for `CC(C)Nc1ncc2c(n1)CN(C(=O)N[C@@H](c1ccc(F)c(Cl)c1)[C@@H](C)O)CC2`: 3 nM and 88 nM.
Regarding `CC(C)Nc1ncc2c(n1)CN(C(=O)N[C@@H](c1ccc(F)c(Cl)c1)[C@H](C)O)CC2`, the IC50 was 6 nM in data set [1] and 200 nM in data set [2].
For `CC[C@H](O)[C@@H](NC(=O)N1CCc2cnc(NC(C)C)nc2C1)c1ccc(F)c(Cl)c1`, in that order: 2 nM and 108 nM.
For `COC[C@@H](NC(=O)N1CCc2cnc(NC(C)C)nc2C1)c1ccc(F)c(Cl)c1`, the figures for the IC50 in data set [1] and in data set [2] were 11 nM and 368 nM, respectively.
For `COCCOC[C@@H](NC(=O)N1CCc2cnc(NC(C)C)nc2C1)c1ccc(F)c(Cl)c1`, in that order: 122 nM and 2110 nM.
For `CC(C)Nc1ncc2c(n1)CN(C(=O)N[C@H](CN)c1ccc(F)c(Cl)c1)CC2`, in that order: 2 nM and 356 nM.
Take `CNC[C@@H](NC(=O)N1CCc2cnc(NC(C)C)nc2C1)c1ccc(F)c(Cl)c1`: the IC50 in data set [1] worked out at 4 nM; in data set [2], 144 nM.
The matching figures for `CC(C)Nc1ncc2c(n1)CN(C(=O)N[C@H](CNCCO)c1ccc(F)c(Cl)c1)CC2`: 8 nM and 2760 nM.
The matching figures for `CC(C)Nc1ncc2c(n1)CN(C(=O)N[C@H](CNS(C)(=O)=O)c1ccc(F)c(Cl)c1)CC2`: 7 nM and 917 nM.
As for `C[C@@H](NC(=O)N1CCc2cnc(N[C@H]3CCO[C@@H](CO)C3)nc2C1)c1ccc(Cl)c(Cl)c1`, the IC50 in data set [1] stood at 2 nM; in data set [2], 7 nM; in data set [3], 2 nM.
As to `CNc1ncc2c(n1)CN(C(=O)N[C@H](CO)c1ccc(F)c(Cl)c1)CC2`, the results for the IC50 in data set [1] and in data set [2] were 43 nM and 2260 nM, respectively.
With `CCNc1ncc2c(n1)CN(C(=O)N[C@H](CO)c1ccc(F)c(Cl)c1)CC2`, the IC50 in data set [1] is 20 nM; in data set [2], 753 nM.
For `O=C(N[C@H](CO)c1ccc(F)c(Cl)c1)N1CCc2cnc(NCCO)nc2C1`, in that order: 9 nM and 2450 nM.
The matching figures for `O=C(N[C@H](CO)c1ccc(F)c(Cl)c1)N1CCc2cnc(NC3CCCC3)nc2C1`: 4 nM and 330 nM.
Turning to `C[C@@H](CO)Nc1ncc2c(n1)CN(C(=O)N[C@H](C)c1ccc(Cl)c(Cl)c1)CC2`, the fraction unbound in data set [4] was 0.03. Besides, the IC50 in data set [1] stood at 1 nM; in data set [2], 21 nM; in data set [3], 104 nM.
For `CC[C@@H](NC(=O)N1CCc2cnc(N[C@@H](C)CO)nc2C1)c1ccc(F)c(F)c1`, the fraction unbound in data set [4] was 0.226. Also, the figures for the half-inhibitory concentration (IC50) in data set [1], in data set [2] and in data set [3] were 3 nM, 51 nM and 13 nM, respectively.
The matching figures for `CC[C@@H](NC(=O)N1CCc2cnc(N[C@@H](C)CO)nc2C1)c1ccc(Cl)c(Cl)c1`: 0.025, 2 nM, 23 nM and 12 nM.
For `C[C@@H](CO)Nc1ncc2c(n1)CN(C(=O)N[C@H](C)c1ccc(C(F)(F)F)c(F)c1)CC2`, in that order: 0.013, 3 nM, 110 nM and 821 nM.
On to `CC[C@@H](NC(=O)N1CCc2cnc(N[C@@H](C)CO)nc2C1)c1ccc(OC)c(Cl)c1`, for which the fraction unbound in data set [4] is 0.081. The values for the IC50 in data set [1], in data set [2] and in data set [3] were 2 nM, 14 nM and 71 nM, respectively.
Take `CC(C)(C)Nc1ncc2c(n1)CN(C(=O)N[C@H](CO)c1ccc(F)c(Cl)c1)CC2`: the values for the half-inhibitory concentration (IC50) in data set [1] and in data set [2] were 41 nM and 3010 nM, respectively.
The matching figures for `O=C(N[C@H](CO)c1ccc(F)c(Cl)c1)N1CCc2cnc(N[C@H]3CC[C@H](O)C3)nc2C1`: 2 nM and 198 nM.
On to `Cc1cc(Nc2ncc3c(n2)CN(C(=O)N[C@H](C)c2ccc(Cl)c(Cl)c2)CC3)ccn1`, for which, in data set [4], the fraction unbound is 0.006. Moreover, the half-maximal inhibitory concentration (IC50) in data set [1] was 1 nM; in data set [2], 23 nM; in data set [3], 9 nM.
Take `COc1ccc(CNC(=O)N2CCc3cnc(NC(C)C)nc3C2)cc1`: the IC50 was 106 nM in data set [1] and 4400 nM in data set [2].
Regarding `O=C(N[C@H](CO)c1ccc(F)c(Cl)c1)N1CCc2cnc(Nc3ccc(F)cc3)nc2C1`, the IC50 in data set [1] amounted to 3 nM; in data set [2] it was 348 nM.
In data set [2], `Cc1noc(C)c1Nc1ncc2c(n1)CN(C(=O)N[C@H](CO)c1ccc(F)c(Cl)c1)CC2` had a concentration for half-maximal inhibition (IC50) of 13200 nM.
For `CC(C)Nc1ncc2c(n1)CN(C(=O)NCc1ccccc1)CC2`, the IC50 was 283 nM in data set [1] and 4380 nM in data set [2].
The matching figures for `CC(C)Nc1ncc2c(n1)CN(C(=O)NCc1ccc(F)cc1)CC2`: 69 nM and 6620 nM.
For `CC(C)Nc1ncc2c(n1)CN(C(=O)NCc1ccc(Cl)cc1)CC2`, in that order: 91 nM and 2140 nM.
For `CC(C)Nc1ncc2c(n1)CN(C(=O)NCc1cccc(F)c1)CC2`, in that order: 93 nM and 2610 nM.
In the case of `CC(=O)Nc1ncc2c(n1)CN(C(=O)N[C@H](CO)c1ccc(F)c(Cl)c1)CC2`, the figures for the IC50 in data set [1] and in data set [2] were 93 nM and 7440 nM, respectively.
The matching figures for `Cn1cc(Nc2ncc3c(n2)CN(C(=O)N[C@H](CO)c2ccc(F)c(Cl)c2)CC3)cn1`: 6 nM and 247 nM.
For `Cc1cc(Nc2ncc3c(n2)CN(C(=O)N[C@H](CO)c2ccc(F)c(Cl)c2)CC3)ccn1`, the values for the concentration for half-maximal inhibition (IC50) in data set [1] and in data set [2] were 7 nM and 445 nM, respectively.
For `CC(C)Nc1ncc2c(n1)CN(C(=O)NCc1cccc(Cl)c1)CC2`, in that order: 89 nM and 1860 nM.
`O=C(N[C@H](CO)c1ccc(Cl)c(Cl)c1)N1CCc2cnc(NC3CCOCC3)nc2C1`: the fraction unbound in data set [4] is 0.103. Also, the figures for the IC50 in data set [1], in data set [2] and in data set [3] were 1 nM, 17 nM and 11 nM, respectively.
On to `C[C@@H](NC(=O)N1CCc2cnc(NC3CCOCC3)nc2C1)c1ccc2cc[nH]c2c1`, for which the IC50 in data set [1] is 2 nM; in data set [2], 21 nM; in data set [3], 69 nM.
On to `C[C@@H](NC(=O)N1CCc2cnc(NC3CCOCC3)nc2C1)c1ccc(Cl)c(F)c1`, for which, in data set [4], the fraction unbound is 0.095. The IC50 is 1 nM in data set [1], 12 nM in data set [2] and 13 nM in data set [3].
Turning to `CC[C@@H](NC(=O)N1CCc2cnc(NC3CCOCC3)nc2C1)c1ccc(C#N)c(Cl)c1`, the IC50 worked out at 1 nM in data set [1], 4 nM in data set [2] and 2 nM in data set [3].
Consider `C[C@@H](CO)Nc1ncc2c(n1)CN(C(=O)N[C@H](CO)c1ccc(F)c(Cl)c1)CC2`, for which the results for the half-inhibitory concentration (IC50) in data set [1] and in data set [2] were 3 nM and 473 nM, respectively.
Turning to `CC(C)CNc1ncc2c(n1)CN(C(=O)N[C@H](CO)c1ccc(F)c(Cl)c1)CC2`, the IC50 was found to be 10 nM in data set [1] and 513 nM in data set [2].
In the case of `C[C@@H](NC(=O)N1CCc2cnc(Nc3cnn(C)c3)nc2C1)c1ccc(Cl)c(Cl)c1`, the fraction unbound in data set [4] is 0.018. In addition, the results for the IC50 in data set [1], in data set [2] and in data set [3] were 1 nM, 35 nM and 4 nM, respectively.
For `C[C@@H](NC(=O)N1CCc2cnc(Nc3ccnn3C)nc2C1)c1ccc(Cl)c(Cl)c1`, in that order: 0.01, 1 nM, 43 nM and 23 nM.
